Columns and labels:
Experiment in all cases: SILAC RP-ABPP
Format in all cases: cell-based
[1] = biological target: T1, ACAA1 3ketoacylCoA thiolase, peroxisomal (P09110) (Homo sapiens, UniProt P09110); settings: SILAC H/L, MDA-MB-231
T1 construct: endogenous in cells; host or cells: HEK293T or MDA-MB-231
Method: (§1) For MS-based experiments, labelling was performed in a similar manner as described above in Example 2, maintaining the same concentrations of probes. Modifications to this protocol included using isotopically ‘light’ and ‘heavy’ SILAC cells that were also grown to near complete confluence prior to treatment. Isotopically light cells were treated with the non-clickable hydrazine probe (at the same concentration as the probe in ‘enrichment’ experiments) or the probe in the presence of 10-fold excess non-clickable hydrazine probe as a competitor (in ‘competition’ experiments). Isotopically heavy cells were treated with the probe for both types of experiments. These treatments were performed in non-SILAC media. Following treatments, cells were washed with cold PBS to remove the probe-containing media, harvested by scraping, collected by centrifugation (1,400 g, 3 min, 4° C.), washed again by resuspension in cold PBS and frozen as pellets at −80° C. until use.
(§2) The fractionated equimolar mixture of heavy and light soluble proteomes (1-1.5 mg) was diluted to 1 mL in PBS. Click reactions were scaled accordingly (except for biotin-azide) to maintain final concentrations of 0.1 mM TBTA, 1 mM CuSO4, 100 μM biotin-azide (10 mM in DMSO) and 1 mM TCEP. The mixture was vortexed and placed on a rotator at ambient temperature for 1 hour. Sequential addition of and mixture with pre-chilled methanol (MeOH, 2 mL), chloroform (CHCl3, 0.5 mL) and PBS (1 mL) on ice quenched the reaction. The precipitated proteome was centrifuged (5,000 g, 10 min, 4° C.) to fractionate the protein interphase from the organic and aqueous solvent layers. The protein pellet was washed with cold 1:1 MeOH:CHCl3 (3×1 mL), mildly sonicated in cold 4:1 MeOH:CHCl3 (2.5 mL) and pelleted once more by centrifugation (5,000 g, 10 min, 4° C.) to ensure click reagents were efficiently removed.
(§3) Heavy and light parent ion chromatograms associated with successfully identified peptides were extracted and compared using CIMAGE software as previously described^69. At least one ion of a co-eluting heavy-light pair must be accurately identified from a fragmentation event that occurred within the retention time window (±10 min) of parent ion elution. To ensure that the correct pair of peaks is quantified, chromatograms are extracted within a 10 ppm error tolerance of the predicted m/z, the signal-to-noise ratio must be >2.5 and the ‘co-elution correlation score’ and ‘envelope correlation score’ must have R^2 values ≥0.8. In addition, peptides detected as ‘singletons,’ where only the heavy ion of a peptide pair was identified, but for which passed all other filtering parameters, are given a default assigned ratio of ‘20,’ which is defined as any measured ratio that is ≥20.
(§4) To further eliminate false positives and any stochastic variability in the data, protein ratios were then determined by the median peptide ratio derived from three or more unique quantified peptides. Protein ratios that complied with these criteria from a single experiment were then averaged with ratios acquired from ≥3 replicates to provide final values for each type of experiment in both cell lines with both probes. […] Most importantly, there are no robustly measured ratios for proteins identified as probe 1 targets that had measured ratios of ˜1 with probe 2. Probe targets in HEK293T and MDA-MB-231 cells represent data combined from ≥3 independent biological replicates with each cell type performed with several independent batches of synthesized probes over a period of almost two years.
(§5) Analogous experiments were also performed with the aryl hydrazine probe 2 (1 mM, 0.5 hour), which furnished a larger list of high-reactivity proteins (33 in total; Table 3) that contained several of the targets of probe 1 (compared in Table 4), as well as additional proteins that may reflect an expanded chemical reactivity for probe 2.

[2] = biological target: T2, CTSS Cathepsin S (P25774) (Homo sapiens, UniProt P25774); settings: SILAC H/L, MDA-MB-231
T2 construct: endogenous in cells; host or cells: HEK293T or MDA-MB-231
Method: as §1, §2, §3, §4, §5

[3] = biological target: T3, CYP27A1 Sterol 26hydroxylase, mitochondrial (Q02318) (Homo sapiens, UniProt Q02318); settings: SILAC H/L, MDA-MB-231
T3 construct: endogenous in cells; host or cells: HEK293T or MDA-MB-231
Method: as §1, §2, §3, §4, §5

[4] = biological target: T4, FADS2 Fatty acid desaturase 2 (O95864) (Homo sapiens, UniProt O95864); settings: SILAC H/L, HEK293T
T4 construct: In Situ Labelling of Cells with Hydrazine Probes for MS Experiments; endogenous in cells; host or cells: HEK293T and/or MDA-MB-231
Method: as §1, §2, §3, §4, §5

[5] = biological target: T5, FTL Ferritin light chain (P02792) (Homo sapiens, UniProt P02792); settings: SILAC H/L, MDA-MB-231
T5 construct: endogenous in cells; host or cells: HEK293T or MDA-MB-231
Method: as §1, §2, §3, §4, §5

[6] = biological target: T6, HEXB Betahexosaminidase subunit beta (P07686) (Homo sapiens, UniProt P07686); settings: SILAC H/L, MDA-MB-231
T6 construct: endogenous in cells; host or cells: HEK293T or MDA-MB-231
Method: as §1, §2, §3, §4, §5

[7] = biological target: T7, MINA MYCinduced nuclear antigen (Q8IUF8) (Homo sapiens, UniProt Q8IUF8); settings: SILAC H/L, HEK293T
T7 construct: In Situ Labelling of Cells with Hydrazine Probes for MS Experiments; endogenous in cells; host or cells: HEK293T and/or MDA-MB-231
Method: as §1, §2, §3, §4, §5

[8] = biological target: T8, NAGA AlphaNacetylgalactosaminidase (P17050) (Homo sapiens, UniProt P17050); settings: SILAC H/L, MDA-MB-231
T8 construct: endogenous in cells; host or cells: HEK293T or MDA-MB-231
Method: as §1, §2, §3, §4, §5

[9] = biological target: T9, NEU1 Sialidase1 (Q99519) (Homo sapiens, UniProt Q99519); settings: SILAC H/L, MDA-MB-231
T9 construct: endogenous in cells; host or cells: HEK293T or MDA-MB-231
Method: as §1, §2, §3, §4, §5

[10] = biological target: T10, PRCP Lysosomal ProX carboxypeptidase (P42785) (Homo sapiens, UniProt P42785); settings: SILAC H/L, MDA-MB-231
T10 construct: endogenous in cells; host or cells: HEK293T or MDA-MB-231
Method: as §1, §2, §3, §4, §5

[11] = biological target: T11, PXDN Peroxidasin homolog (Q92626) (Homo sapiens, UniProt Q92626); settings: SILAC H/L, MDA-MB-231
T11 construct: In Situ Labelling of Cells with Hydrazine Probes for MS Experiments; endogenous in cells; host or cells: HEK293T and/or MDA-MB-231
Method: as §1, §2, §3, §4, §5

[12] = biological target: T12, PYROXD2 Pyridine nucleotidedisulfide (Q8N2H3) (Homo sapiens, UniProt Q8N2H3); settings: SILAC H/L, MDA-MB-231
T12 construct: In Situ Labelling of Cells with Hydrazine Probes for MS Experiments; endogenous in cells; host or cells: HEK293T and/or MDA-MB-231
Method: as §1, §2, §3, §4, §5

[13] = biological target: T13, RRM2 Ribonucleosidediphosphate reductase (P31350) (Homo sapiens, UniProt P31350); settings: SILAC H/L, HEK293T
T13 construct: In Situ Labelling of Cells with Hydrazine Probes for MS Experiments; endogenous in cells; host or cells: HEK293T and/or MDA-MB-231
Method: as §1, §2, §3, §4, §5

[14] = biological target: T14, aminotransferase, mitoch (O15382) (Homo sapiens, UniProt O15382); settings: SILAC H/L, MDA-MB-231
T14 construct: endogenous in cells; host or cells: HEK293T or MDA-MB-231
Method: as §1, §2, §3, §4, §5

T6 sequence (P07686 122-556, one chain of several): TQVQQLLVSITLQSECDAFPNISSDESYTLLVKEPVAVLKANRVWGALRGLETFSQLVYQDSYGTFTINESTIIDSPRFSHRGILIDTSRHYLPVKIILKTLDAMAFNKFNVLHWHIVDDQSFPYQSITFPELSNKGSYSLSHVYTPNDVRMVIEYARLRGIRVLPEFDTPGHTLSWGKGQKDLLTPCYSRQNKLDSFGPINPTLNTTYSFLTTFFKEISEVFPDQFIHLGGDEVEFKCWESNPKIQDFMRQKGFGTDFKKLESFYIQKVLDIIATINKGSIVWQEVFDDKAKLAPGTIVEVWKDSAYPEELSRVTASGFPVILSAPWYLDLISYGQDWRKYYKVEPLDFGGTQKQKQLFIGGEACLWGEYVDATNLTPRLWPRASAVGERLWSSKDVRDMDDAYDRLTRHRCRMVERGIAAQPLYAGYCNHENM
T12 sequence (Q8N2H3 whole entry): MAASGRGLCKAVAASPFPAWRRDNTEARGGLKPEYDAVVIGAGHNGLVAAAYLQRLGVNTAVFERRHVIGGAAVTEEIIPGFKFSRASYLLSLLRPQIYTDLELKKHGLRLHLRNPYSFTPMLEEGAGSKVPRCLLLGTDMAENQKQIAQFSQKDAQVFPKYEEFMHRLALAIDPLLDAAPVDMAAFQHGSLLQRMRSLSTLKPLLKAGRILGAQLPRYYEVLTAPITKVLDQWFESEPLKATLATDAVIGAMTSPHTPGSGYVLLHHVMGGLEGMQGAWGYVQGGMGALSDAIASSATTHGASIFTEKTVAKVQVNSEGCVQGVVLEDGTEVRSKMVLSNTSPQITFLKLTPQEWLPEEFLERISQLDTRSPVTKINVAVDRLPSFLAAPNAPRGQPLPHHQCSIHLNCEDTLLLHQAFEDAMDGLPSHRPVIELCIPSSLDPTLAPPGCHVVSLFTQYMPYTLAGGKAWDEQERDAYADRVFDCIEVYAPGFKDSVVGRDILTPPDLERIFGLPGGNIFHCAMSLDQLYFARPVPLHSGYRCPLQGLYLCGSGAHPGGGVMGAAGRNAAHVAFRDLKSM
T5 sequence (P02792 2-175): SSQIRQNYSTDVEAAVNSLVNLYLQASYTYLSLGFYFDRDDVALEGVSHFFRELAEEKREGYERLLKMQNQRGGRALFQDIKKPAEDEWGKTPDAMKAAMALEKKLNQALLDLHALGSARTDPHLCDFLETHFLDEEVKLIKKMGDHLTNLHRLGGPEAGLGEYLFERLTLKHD
T11 sequence (Q92626 27-1479): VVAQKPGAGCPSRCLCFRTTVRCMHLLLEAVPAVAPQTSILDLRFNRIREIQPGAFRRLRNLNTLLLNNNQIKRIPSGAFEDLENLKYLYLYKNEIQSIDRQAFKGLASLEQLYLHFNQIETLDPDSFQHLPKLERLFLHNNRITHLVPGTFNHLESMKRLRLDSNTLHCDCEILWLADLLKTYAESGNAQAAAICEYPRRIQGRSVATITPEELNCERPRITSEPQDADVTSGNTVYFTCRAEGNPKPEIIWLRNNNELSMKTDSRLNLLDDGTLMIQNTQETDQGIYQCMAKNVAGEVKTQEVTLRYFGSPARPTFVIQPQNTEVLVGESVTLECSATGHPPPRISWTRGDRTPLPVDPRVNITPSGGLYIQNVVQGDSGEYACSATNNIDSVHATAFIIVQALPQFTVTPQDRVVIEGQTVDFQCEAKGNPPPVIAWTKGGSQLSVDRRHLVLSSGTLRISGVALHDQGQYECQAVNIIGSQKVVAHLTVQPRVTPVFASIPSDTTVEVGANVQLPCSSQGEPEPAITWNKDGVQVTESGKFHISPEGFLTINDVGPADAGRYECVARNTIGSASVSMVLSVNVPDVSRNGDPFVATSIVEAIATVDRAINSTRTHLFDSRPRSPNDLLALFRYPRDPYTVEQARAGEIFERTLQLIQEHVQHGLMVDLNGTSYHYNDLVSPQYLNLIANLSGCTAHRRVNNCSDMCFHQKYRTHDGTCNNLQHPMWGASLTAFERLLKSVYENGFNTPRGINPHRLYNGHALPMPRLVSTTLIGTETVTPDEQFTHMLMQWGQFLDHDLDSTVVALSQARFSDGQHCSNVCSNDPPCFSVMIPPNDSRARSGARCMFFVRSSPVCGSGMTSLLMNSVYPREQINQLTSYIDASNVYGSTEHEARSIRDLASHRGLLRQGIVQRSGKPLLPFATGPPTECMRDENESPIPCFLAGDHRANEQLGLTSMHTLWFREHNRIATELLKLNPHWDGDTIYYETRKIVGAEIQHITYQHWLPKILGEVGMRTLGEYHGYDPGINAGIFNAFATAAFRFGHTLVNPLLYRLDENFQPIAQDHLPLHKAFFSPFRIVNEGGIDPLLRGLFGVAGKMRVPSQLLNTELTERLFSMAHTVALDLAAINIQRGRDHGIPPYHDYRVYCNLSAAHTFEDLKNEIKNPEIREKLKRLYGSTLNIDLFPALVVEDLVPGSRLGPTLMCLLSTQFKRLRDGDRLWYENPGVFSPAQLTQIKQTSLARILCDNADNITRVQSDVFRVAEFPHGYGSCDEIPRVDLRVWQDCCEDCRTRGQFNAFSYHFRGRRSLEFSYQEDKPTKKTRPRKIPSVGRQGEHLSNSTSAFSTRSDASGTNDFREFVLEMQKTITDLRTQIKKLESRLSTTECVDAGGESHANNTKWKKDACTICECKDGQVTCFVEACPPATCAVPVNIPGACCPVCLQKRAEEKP
T2 sequence (P25774 115-331): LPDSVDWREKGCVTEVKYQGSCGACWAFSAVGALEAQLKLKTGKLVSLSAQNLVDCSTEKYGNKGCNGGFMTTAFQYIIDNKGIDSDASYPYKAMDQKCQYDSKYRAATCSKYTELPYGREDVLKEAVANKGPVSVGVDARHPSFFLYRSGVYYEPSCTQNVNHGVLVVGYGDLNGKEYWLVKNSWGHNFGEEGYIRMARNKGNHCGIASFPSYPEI
T10 sequence (P42785 46-496): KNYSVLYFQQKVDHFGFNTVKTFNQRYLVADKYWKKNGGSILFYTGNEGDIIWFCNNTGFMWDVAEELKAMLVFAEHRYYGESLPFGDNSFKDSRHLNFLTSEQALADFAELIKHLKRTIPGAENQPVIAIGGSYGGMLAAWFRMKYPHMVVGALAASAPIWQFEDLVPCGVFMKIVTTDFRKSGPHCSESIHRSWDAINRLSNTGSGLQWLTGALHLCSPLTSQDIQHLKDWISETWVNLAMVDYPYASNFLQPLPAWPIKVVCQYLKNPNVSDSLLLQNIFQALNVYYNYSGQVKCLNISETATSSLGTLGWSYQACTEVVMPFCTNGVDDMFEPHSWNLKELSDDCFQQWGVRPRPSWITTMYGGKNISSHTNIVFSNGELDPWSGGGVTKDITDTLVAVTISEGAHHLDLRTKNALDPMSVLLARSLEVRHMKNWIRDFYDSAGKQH
T3 sequence (Q02318 34-531): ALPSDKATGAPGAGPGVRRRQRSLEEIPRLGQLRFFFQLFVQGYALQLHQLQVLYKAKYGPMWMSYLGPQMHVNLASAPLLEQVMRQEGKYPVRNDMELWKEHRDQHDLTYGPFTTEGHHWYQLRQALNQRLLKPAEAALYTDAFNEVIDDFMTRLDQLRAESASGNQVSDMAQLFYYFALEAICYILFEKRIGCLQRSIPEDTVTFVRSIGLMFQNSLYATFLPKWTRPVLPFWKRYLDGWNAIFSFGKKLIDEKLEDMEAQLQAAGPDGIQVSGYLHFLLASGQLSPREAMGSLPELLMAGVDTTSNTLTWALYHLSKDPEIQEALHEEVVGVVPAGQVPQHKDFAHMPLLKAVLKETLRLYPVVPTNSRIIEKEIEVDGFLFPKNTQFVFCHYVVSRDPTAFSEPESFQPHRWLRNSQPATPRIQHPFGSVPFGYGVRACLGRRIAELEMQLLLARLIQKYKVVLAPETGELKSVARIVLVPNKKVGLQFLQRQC
T4 sequence (O95864 whole entry): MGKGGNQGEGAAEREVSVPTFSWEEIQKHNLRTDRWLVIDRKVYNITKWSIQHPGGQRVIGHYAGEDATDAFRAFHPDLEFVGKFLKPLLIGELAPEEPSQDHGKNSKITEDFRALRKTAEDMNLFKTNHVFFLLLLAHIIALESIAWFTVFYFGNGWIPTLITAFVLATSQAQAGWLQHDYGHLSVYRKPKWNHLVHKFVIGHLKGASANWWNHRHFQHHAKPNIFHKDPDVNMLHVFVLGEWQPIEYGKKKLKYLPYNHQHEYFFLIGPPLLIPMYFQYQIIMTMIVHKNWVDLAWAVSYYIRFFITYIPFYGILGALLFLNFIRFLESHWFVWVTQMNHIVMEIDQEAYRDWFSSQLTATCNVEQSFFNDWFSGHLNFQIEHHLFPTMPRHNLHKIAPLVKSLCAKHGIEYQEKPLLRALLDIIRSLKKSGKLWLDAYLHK
T14 sequence (O15382 28-392): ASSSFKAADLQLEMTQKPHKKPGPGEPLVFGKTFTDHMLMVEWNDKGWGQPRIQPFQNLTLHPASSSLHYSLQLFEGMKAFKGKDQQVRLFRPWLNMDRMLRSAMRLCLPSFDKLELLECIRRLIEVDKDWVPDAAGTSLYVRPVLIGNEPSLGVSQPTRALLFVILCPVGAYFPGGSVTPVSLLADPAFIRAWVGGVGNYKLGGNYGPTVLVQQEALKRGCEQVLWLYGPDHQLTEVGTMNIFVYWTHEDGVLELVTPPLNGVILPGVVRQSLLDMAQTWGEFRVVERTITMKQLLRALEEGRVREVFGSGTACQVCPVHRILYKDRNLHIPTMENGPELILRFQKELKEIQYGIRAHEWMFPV

`C#CCCNC(=O)c1ccc(NN)cc1.Cl` [probe 2, N-(but-3-yn-1-yl)-4-hydrazinylbenzamide hydrochloride] was tested, and the enrichment ratioavg ([1]; probe 2 1 mM 0.5 h vs probe 4) was 6, the competition ratioavg ([1]; probe 2 vs probe 2+10x probe 4) was 2 and the enrichment ratioavg ([2]; probe 2 1 mM 0.5 h vs probe 4) was 18. For the same molecule, the competition ratioavg ([2]; probe 2 vs probe 2+10x probe 4) was 3, the enrichment ratioavg ([3]; probe 2 1 mM 0.5 h vs probe 4) was 20 and the competition ratioavg ([3]; probe 2 vs probe 2+10x probe 4) was 3. For the same molecule, the enrichment ratioavg ([4]; probe 2 1 mM 0.5 h vs probe 4) was 20, the competition ratioavg ([4]; probe 2 vs probe 2+10x probe 4) was 4 and the enrichment ratioavg ([5]; probe 2 1 mM 0.5 h vs probe 4) was 7. It also gave a competition ratioavg ([5]; probe 2 vs probe 2+10x probe 4) of 3, an enrichment ratioavg ([6]; probe 2 1 mM 0.5 h vs probe 4) of 11 and a competition ratioavg ([6]; probe 2 vs probe 2+10x probe 4) of 3. It also gave an enrichment ratioavg ([7]; probe 2 1 mM 0.5 h vs probe 4) of 8, a competition ratioavg ([7]; probe 2 vs probe 2+10x probe 4) of 2 and an enrichment ratioavg ([8]; probe 2 1 mM 0.5 h vs probe 4) of 17. It also gave a competition ratioavg ([8]; probe 2 vs probe 2+10x probe 4) of 3, an enrichment ratioavg ([9]; probe 2 1 mM 0.5 h vs probe 4) of 5 and a competition ratioavg ([9]; probe 2 vs probe 2+10x probe 4) of 3. The enrichment ratioavg ([10]; probe 2 1 mM 0.5 h vs probe 4) was 15, the competition ratioavg ([10]; probe 2 vs probe 2+10x probe 4) was 4 and the enrichment ratioavg ([11]; probe 2 1 mM 0.5 h vs probe 4) was 20. The competition ratioavg ([11]; probe 2 vs probe 2+10x probe 4) was 5, the enrichment ratioavg ([12]; probe 2 1 mM 0.5 h vs probe 4) was 20 and the competition ratioavg ([12]; probe 2 vs probe 2+10x probe 4) was 20. It also gave an enrichment ratioavg ([13]; probe 2 1 mM 0.5 h vs probe 4) of 13, a competition ratioavg ([13]; probe 2 vs probe 2+10x probe 4) of 1 and an enrichment ratioavg ([14]; probe 2 1 mM 0.5 h vs probe 4) of 15. The competition ratioavg ([14]; probe 2 vs probe 2+10x probe 4) was 2.
